Test results published in ChEMBL document CHEMBL4482313, “Method and compounds for inhibition of cell death” (2012).
Activity calls are given as the source filed them. No cut-off for these calls is given here.

How the values were obtained:
[1] = biological target: T1, Serine protease HTRA2, mitochondrial (Homo sapiens) (UniProt O43464); assay: Inhibition of MBP-fused Omi/HtrA2 (134 to 458 residues) (unknown origin) expressed in TB1 Escherichia coli at 20 to 100 uM pre-incubated for 15 mins before FITC-labeled dephosphorylated casein substrate addition and measured every 5 mins for 30 mins by fluorescence assay
T1 sequence (whole entry): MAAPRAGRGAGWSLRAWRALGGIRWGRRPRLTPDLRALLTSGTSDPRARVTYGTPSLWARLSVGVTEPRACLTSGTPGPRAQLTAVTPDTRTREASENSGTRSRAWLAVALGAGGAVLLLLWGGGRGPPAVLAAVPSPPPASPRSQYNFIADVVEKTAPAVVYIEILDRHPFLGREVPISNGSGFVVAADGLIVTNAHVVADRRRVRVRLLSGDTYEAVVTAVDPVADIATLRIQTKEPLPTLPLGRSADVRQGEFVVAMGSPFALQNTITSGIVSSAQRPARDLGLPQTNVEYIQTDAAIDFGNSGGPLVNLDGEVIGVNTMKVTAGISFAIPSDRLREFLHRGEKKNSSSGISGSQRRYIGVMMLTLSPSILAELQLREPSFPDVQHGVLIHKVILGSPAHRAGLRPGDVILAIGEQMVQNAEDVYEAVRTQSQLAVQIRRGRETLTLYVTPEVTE

[2] = biological target: T1, Serine protease HTRA2, mitochondrial (Homo sapiens); assay: Irreversible inhibition of MBP-fused Omi/HtrA2 (134 to 458 residues) (unknown origin) expressed in TB1 Escherichia coli at 20 to 100 uM pre-incubated for 40 mins to 1 hr before FITC-labeled dephosphorylated casein substrate addition and measured every 5 mins for 30 mins by fluorescence assay
[3] = biological target: T1, Serine protease HTRA2, mitochondrial (Homo sapiens)
[4] = biological target: T1, Serine protease HTRA2, mitochondrial (Homo sapiens); assay: Inhibition of MBP-fused Omi/HtrA2 (134 to 458 residues) (unknown origin) expressed in TB1 Escherichia coli at 20 uM pre-incubated for 15 mins before FITC-labeled dephosphorylated casein substrate addition and measured every 5 mins for 30 mins by fluorescence assay relative to control
[5] = biological target: T1, Serine protease HTRA2, mitochondrial (Homo sapiens); assay: Inhibition of MBP-fused Omi/HtrA2 (134 to 458 residues) (unknown origin) expressed in TB1 Escherichia coli at 10 uM pre-incubated for 15 mins before higher 2 times FITC-labeled dephosphorylated casein substrate addition and measured every 5 mins for 30 mins by fluorescence assay
[6] = biological target: T1, Serine protease HTRA2, mitochondrial (Homo sapiens); assay: Inhibition of His-tagged Omi/HtrA2 (134 to 458 residues) (unknown origin) expressed in TB1 Escherichia coli at 10 to 100 uM pre-incubated for 10 mins before un-labeled beta-casein substrate addition and measured after 30 mins by Coomassie blue staining based SDS-PAGE analysis
[7] = biological target: T1, Serine protease HTRA2, mitochondrial (Homo sapiens); assay: Inhibition of His-tagged Omi/HtrA2 (134 to 458 residues) (unknown origin) expressed in TB1 Escherichia coli at 80 uM pre-incubated for 10 mins before un-labeled beta-casein substrate addition and measured after 30 mins by Coomassie blue staining based SDS-PAGE analysis
[8] = biological target: T1, Serine protease HTRA2, mitochondrial (Homo sapiens); assay: Inhibition of His-tagged Omi/HtrA2 (134 to 458 residues) (unknown origin) expressed in TB1 Escherichia coli at 10 to 50 uM pre-incubated for 15 mins before FITC-labeled dephosphorylated casein substrate addition and measured every 5 mins for 30 mins by fluorescence assay
[9] = biological target: Serine protease HTRA1 (Homo sapiens) (UniProt Q92743); assay: Inhibition of His-tagged L56/HtrA1 (140 to 480 residues) (unknown origin) expressed in TB1 Escherichia coli at 10 to 50 uM pre-incubated for 15 mins before FITC-labeled dephosphorylated casein substrate addition and measured every 5 mins for 30 mins by fluorescence assay
Sequence of Serine protease HTRA1 (Homo sapiens) (Q92743 whole entry, the tested form may be a part): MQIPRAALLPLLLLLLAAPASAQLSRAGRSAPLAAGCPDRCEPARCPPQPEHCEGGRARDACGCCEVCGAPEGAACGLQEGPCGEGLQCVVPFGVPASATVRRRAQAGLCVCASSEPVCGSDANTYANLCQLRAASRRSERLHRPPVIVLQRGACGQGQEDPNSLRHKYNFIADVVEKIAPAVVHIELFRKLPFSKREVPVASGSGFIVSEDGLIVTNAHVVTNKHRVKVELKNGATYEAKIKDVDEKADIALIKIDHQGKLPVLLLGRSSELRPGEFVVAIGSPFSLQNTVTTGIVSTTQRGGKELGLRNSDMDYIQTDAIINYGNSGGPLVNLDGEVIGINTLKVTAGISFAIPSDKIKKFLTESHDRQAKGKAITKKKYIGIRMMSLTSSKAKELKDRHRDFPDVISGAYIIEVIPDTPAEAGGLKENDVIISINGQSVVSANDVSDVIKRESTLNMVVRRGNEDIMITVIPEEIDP

[10] = Inhibition of canine F10a using fluorogenic substrate incubated for 20 mins by fluorescence based assay; parameters: species or system Canis lupus familiaris
[11] = Inhibition of bovine trypsin incubated for 20 mins by fluorescence based assay; parameters: species or system Bos taurus
Fibroblast [12] = assay type: cell-based; conditions: mouse, 36 h, 25 µM
Fibroblast [13] = assay type: cell-based; conditions: mouse, 36 h
[14] = Drug localization in cytoplasm of human HeLa cells at 20 to 50 uM incubated for 2 hrs by confocal laser-scanning microscopy; assay type: ADME, subcellular
Fibroblast [15] = assay type: cell-based; conditions: mouse, 36 h, 25 µM; remark: listed apart in the source
Canis lupus familiaris = organism: Canis lupus familiaris; assay: Inhibition of cisplatin-induced apoptosis in dog MPT cells at 20 to 50 uM pre-incubated for 20 mins before cisplatin challenge for 6 hrs by annexin-V staining based flow cytometry; assay type: functional, cell-based

Compound: COc1ccc(-c2ccc(C=C3C(=O)N(c4ccccc4)C(=S)N(c4ccccc4)C3=O)o2)cc1Cl
- inhibition [1]: Active
- inhibition [2]: inactive

Compound: Cc1cccc([N+](=O)[O-])c1-c1ccc(C=C2C(=O)N(c3ccccc3)C(=S)N(c3ccccc3)C2=O)o1
- inhibition [3]: < 40%
- inhibition [1]: Active
- inhibition [4]: > 78%
- inhibition [2]: inactive
- inhibition [5]: inactive
- inhibition [6]: Dose-dependent effect
- inhibition [7]: 100%
- inhibition [8]: inactive
- inhibition [9]: Active
- IC50 [10]: 360 to 430 µM
- IC50 [11]: > 500 µM
- Activity (Fibroblast [12]): Non-Toxic
- Activity (Fibroblast [13]): Non-Toxic
- Drug uptake [14]: Active
- Activity (Fibroblast [15]): Non-Toxic
- inhibition (Canis lupus familiaris): Dose-dependent effect

Compound: O=C(O)c1cccc(-c2ccc(C=C3C(=O)N(c4ccccc4)C(=S)N(c4ccccc4)C3=O)o2)c1
- inhibition [1]: Active
- inhibition [2]: inactive

Compound: Cc1ccc([N+](=O)[O-])cc1-c1ccc(C=C2C(=O)N(c3ccccc3)C(=S)N(c3ccccc3)C2=O)o1
- inhibition [1]: Active
- inhibition [4]: 58%
- inhibition [2]: inactive
